Where “and” joins values, the source holds several entries; their conditions need not be identical. Equal values may be shown once.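 Cells were grown in 96-well plates and exposed to each compound for 48 hours at five concentrations; endpoints were interpolated linearly between bracketing concentrations, or set to the highest concentration if not reached. The concentration for 50% growth inhibition is given as GI50. TGI marks complete inhibition of growth.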 Where a SMILES comes first, the peptide text is derived from it. [ ]: non-standard residue; d: D form. Phe(4-Cl) = N[CH](Cc1ccc(Cl)cc1)C(=O)O
Assays:
Experiment in all cases: DTP human tumour cell line panel, 48 h
SK-MEL-2 melanoma = tested on: SK-MEL-2 melanoma
A549 NSCLC = tested on: A549 NSCLC
A498 renal = tested on: A498 renal
SF-539 CNS = tested on: SF-539 CNS
NCI-H522 lung = tested on: NCI-H522 lung
786-0 renal = tested on: 786-0 renal
HL-60(TB) leukemia = tested on: HL-60(TB) leukemia
MALME-3M melanoma = tested on: MALME-3M melanoma
UACC-257 melanoma = tested on: UACC-257 melanoma
MDA-MB-435 = tested on: MDA-MB-435

SMILES	TGI (SK-MEL-2 melanoma) [µM]	TGI (A549 NSCLC) [µM]	TGI (A498 renal) [µM]	TGI (SF-539 CNS)	TGI (NCI-H522 lung)	TGI (786-0 renal)	TGI (HL-60(TB) leukemia)	TGI (MALME-3M melanoma) [µM]	TGI (UACC-257 melanoma) [µM]	GI50 (SK-MEL-2 melanoma)	GI50 (A549 NSCLC)	GI50 (A498 renal)	GI50 (SF-539 CNS)	GI50 (NCI-H522 lung)	GI50 (MDA-MB-435) [µM]	TGI (MDA-MB-435) [µM]	GI50 (786-0 renal)	GI50 (MALME-3M melanoma) [µM]	GI50 (UACC-257 melanoma)	GI50 (HL-60(TB) leukemia)
Cc1ccc2nc3c(C(=O)NCCN(C)C)cccc3nc2c1	12.9	> 100	8.7	15.7 µM	> 100 µM	> 77.2 µM	> 100 µM	8.37	14.1											
CC1(n2nc(-c3ccccc3)n(-c3ccccc3)c2=O)CSC1	> 100	> 100	> 100	> 100 µM	> 100 µM	> 100 µM	> 100 µM		> 100											
O=C(Nc1ccc(Cl)cc1)c1cc(-c2ccc(F)cc2)c2sc(=O)[nH]c2n1	3.93	10.1	3.35	5.71 µM	5.42 µM	2.85 µM		6.8	5.07	1.59 µM	2.45 µM	0.465 µM	2.07 µM	0.478 µM	3.01	17.4	1.35 µM	1.7	1.11 µM	
Cn1cc(C(=O)c2ccccc2)ccc1=O	> 100	> 100		> 100 µM	> 100 µM	> 100 µM	> 100 µM	> 100	> 100											
Cc1noc(C)c1CCCOC1COc2ccccc2OCCOCCOc2ccccc2OC1	> 100	> 100	> 100	> 100 µM	> 100 µM	> 100 µM	> 100 µM	> 100	> 100											
CC(=O)[CH-]C(=O)c1ccccc1.CC(=O)[CH-]C(=O)c1ccccc1.O=C([O-])c1ccc([O-])cc1.O=C([O-])c1ccc([O-])cc1.[Ti+4]	> 100	> 100		> 100 µM	70.9 µM	> 100 µM	67.6 µM	66.8		36.9 µM	69.1 µM		40.2 µM	22.8 µM			54.4 µM	23.6		20.5 µM
CC(C)(C)OC(=O)Cc1ccc2c(ccn2Cc2ccccc2)c1	> 100	> 100	> 100	> 100 µM	> 100 µM	> 100 µM	> 100 µM	> 100	> 100											
Nc1ccc(/C=C/c2ccnc3ccccc23)cc1	37.6	71.4		47.9 µM	30.7 µM	57.6 µM	23.8 µM	97.3	57.8											
NC(CC(=O)OCc1ccccc1)C(=O)OCc1ccccc1 (stereo unspecified)	> 100	> 100		> 100 µM	> 100 µM	> 100 µM			> 100							> 100				
CCCCCCCCCCCCCC1CCC(CC)N1 (stereo unspecified)	36.4	36.2	36.7	32.1 µM	32.6 µM	31.5 µM	21.2 µM	33.8	40.6											
N.N.N.N.N.O=C([O-])c1nn[n-]n1.[Cl-].[Co+3]	> 100	> 100		> 100 µM		> 100 µM	> 100 µM	> 100	> 100	> 100 µM	> 100 µM		> 100 µM				> 100 µM	> 100	> 100 µM	> 100 µM
COc1cc(OC)c(/C=C/C(=O)c2c(OC)cccc2OC)c(OC)c1	> 100	> 100		4.41 µM		3.89 µM	1.82 µM	> 100	> 100	0.807 µM	0.907 µM	0.308 µM	0.533 µM		0.263	1.09	0.536 µM	0.45		0.348 µM
O=C(CCl)Nc1ccc(Cl)cc1	6.16	26.9	22.4	12.6 µM	3.01 µM	19.5 µM		13.2	27.1	2.51 µM	11.2 µM	10.4 µM	3.78 µM	1.48 µM	4.4	20.4	4.64 µM	3.33	10.4 µM	
COC(=O)C(=O)C(C(=O)C(=O)Nc1ccccc1C(N)=O)c1nc2ccc(Cl)cc2[nH]c1=O (stereo unspecified)	> 100	> 100	> 100	> 100 µM		> 100 µM	> 100 µM		> 100							> 100				
CN(C)P(=O)(/C(N)=N/Nc1ccc([N+](=O)[O-])cc1)N(C)C	> 100	> 100		> 100 µM	> 100 µM	> 100 µM	> 100 µM	> 100	> 100											
CC(O)C(NC(=O)C(Cc1ccccc1)NC(=O)C(NC(=O)C(CCCCN)NC(=O)C(Cc1c[nH]c2ccccc12)NC(=O)C(Cc1ccc(O)cc1)NC(=O)C(Cc1ccc(Cl)cc1)NC(=O)C(N)Cc1ccccc1)C(C)O)C(N)=O (stereo unspecified) (H-F[Phe(4-Cl)]YWKTFT-NH2; configuration not given here)	39.3	36	34	42.3 µM		41.3 µM	28.6 µM													
NC1=NN(c2ccccc2)C(=O)C1C(=O)CCC(=O)Nc1cccc(C(F)(F)F)c1 (stereo unspecified)	> 100	> 100		> 100 µM		> 100 µM	> 100 µM	> 100	> 100											
Cc1ccccc1N(CCC#N)C1=NN(C(=O)CC(=O)Nc2ccccc2)C(c2ccccc2)C1 (stereo unspecified)	> 100	> 100		> 100 µM	> 100 µM	> 100 µM	> 100 µM	> 100	> 100											
CC12CCCC(O)C1CCC1=CC3(CCC12)SCCS3 (stereo unspecified)		> 10			> 10 µM	> 10 µM		> 10	> 10							> 10				
COC(=O)C1=NC(=S)NC(c2ccccc2)C1c1nc2ccccc2s1 (stereo unspecified)	> 100	> 100	> 100	> 100 µM		> 100 µM	> 100 µM	> 100	> 100											
CCOC1=NC(=O)CC(c2ccccc2)S1 (stereo unspecified)	> 100	> 100	> 100	> 100 µM		> 100 µM	> 100 µM	> 100	> 100											

SMILES	TGI (SK-MEL-2 melanoma) [µM]	TGI (A549 NSCLC) [µM]	TGI (A498 renal) [µM]	TGI (SF-539 CNS)	TGI (NCI-H522 lung)	TGI (786-0 renal)	TGI (HL-60(TB) leukemia)	TGI (MALME-3M melanoma) [µM]	TGI (UACC-257 melanoma) [µM]	GI50 (SK-MEL-2 melanoma)	GI50 (A549 NSCLC)	GI50 (A498 renal)	GI50 (SF-539 CNS)	GI50 (NCI-H522 lung)	GI50 (MDA-MB-435) [µM]	TGI (MDA-MB-435) [µM]	GI50 (786-0 renal)	GI50 (MALME-3M melanoma) [µM]	GI50 (UACC-257 melanoma)	GI50 (HL-60(TB) leukemia)
CCC[CH2][Sn]1([CH2]CCC)[O]C(=O)C(C(C)C)N=Cc2ccccc2[O]1 (stereo unspecified)	0.521	3.14	> 100	> 100 µM	0.168 µM	1.15 µM		0.456	0.343	0.195 µM	1.59 µM	1.08 µM	0.878 µM	0.0442 µM			0.307 µM	0.188	0.143 µM	
Cc1ccc(Nc2nc3c(s2)C(=O)c2ccccc2C3=O)c(C)c1	28.2	37.6	> 100	31.4 µM	4.66 µM	32.5 µM	6.02 µM	26.9	22.8											
O=C(O)CP(=S)(S)c1ccccc1 (stereo unspecified)	> 100	> 100	> 100	> 100 µM	> 100 µM	> 100 µM	> 100 µM	> 100	> 100											
COC(=O)c1cccc2cccc(C(=O)Nc3ccc(C)cc3C)c12	> 100	> 100	> 100	> 100 µM	> 100 µM	> 100 µM	35 µM	> 100	> 100											
CC(C)N(C(=O)C12CC3CC(CC(C3)C1)C2)C(C)C	> 50	> 50	> 50	> 50 µM	> 50 µM	> 50 µM	> 50 µM	> 50	> 50											
CC(=O)OC[C@]12CC[C@H]3[C@@H](C[C@H]4O[C@]45[C@@H](O)C=CC(=O)[C@]35C)[C@@H]1CC[C@@H]2[C@H](C)[C@H]1CC(C)=C(C)C(=O)O1	1.52	3.2	2.77	0.73 µM and 0.452 µM	0.561 µM and 0.406 µM	0.597 µM and 0.595 µM	0.642 µM and 0.37 µM	2.4	2.69	0.752 µM and 0.484 µM	0.822 µM and 1.04 µM	0.852 µM and 1.2 µM	0.303 µM and 0.2 µM	0.259 µM and 0.166 µM			0.241 µM and 0.232 µM	1.11	0.638 µM and 0.801 µM	0.243 µM and 0.119 µM
COc1cc(OC(=O)c2c(O)cc(O)c(O)c2C)cc(C)c1C(=O)Oc1cc(C)c(C(=O)O)c(O)c1	> 100	> 100	> 100	> 100 µM	> 100 µM	> 100 µM	> 100 µM	> 100	> 100											
CCOC(=O)c1cc(/C(=N\O)c2cc(OC)c(OC)c(OC)c2)n2cc(C)cc(C)c12		> 100	6.74			10 µM	7.57 µM	3.98			3.99 µM	1.99 µM			0.565	4.16	3.01 µM	1.44		2.28 µM
CCOC(=O)CN=c1nc(SC)sc2c(C(=O)OCC)nc(Sc3ccccc3)n12	> 100				74.3 µM	> 100 µM	> 100 µM	> 100	> 100											
O=C(O)CN(c1ccccc1)S(=O)(=O)c1ccccc1[N+](=O)[O-]	> 100	> 100	> 100	> 100 µM	> 100 µM	> 100 µM	> 100 µM	> 100	> 100											
CCOC(=O)NC(=O)c1cn(CCOCCOC(=O)NCCCCCCNC(=O)OCCOCCn2cc(C(=O)NC(=O)OCC)c(=O)[nH]c2=O)c(=O)[nH]c1=O	> 100	> 100	> 100	> 100 µM	> 100 µM	> 100 µM	> 100 µM	> 100	> 100											
COc1c2c(cc3nc4ccccc4nc13)CCC(C(C)(C)O)C2 (stereo unspecified)	> 100	> 100	> 100	> 100 µM	> 100 µM	> 100 µM	76 µM	> 100	> 100											
Cc1cc(C)nc(NS(=O)(=O)c2ccc(Nc3c4ccccc4nc4c(C(=O)Nc5ccc(S(=O)(=O)Nc6cc(C)on6)cc5)cccc34)cc2)n1		> 100	51.5	34.7 µM	29 µM	34.8 µM	61.4 µM	49	66.6											
CCN1C(=O)CNc2ncc(-c3ccc(-c4ncn[nH]4)nc3C)nc21	0.711	7.24	0.0613	0.859 µM	2.88 µM	4.35 µM		0.221	2.11	0.162 µM	0.263 µM	0.013 µM	0.144 µM	0.147 µM	0.162	1.63	0.117 µM	0.0227	0.184 µM	
CN(C)CC/C(=N\Nc1c(Cl)cccc1Cl)c1ccccc1	34.1	> 100	34.8	34.2 µM	33.9 µM	31.3 µM	39.4 µM	43.6	32.7											
Cc1cccc(NC(=O)C(=O)Cc2nc3ccccc3[nH]c2=O)c1C		> 100	> 100	> 100 µM	> 100 µM	> 100 µM	> 100 µM	> 100	> 100											
CC(C)=CCC/C(=C/CC/C(C)=C/CCc1ccoc1)C(=O)O	> 100	> 100	> 100	> 100 µM	> 100 µM	> 100 µM		> 100	> 100											
CC[O-].CC[O-].O=C1c2ccccc2C(=O)c2c(O)ccc([O-])c21.O=C1c2ccccc2C(=O)c2c(O)ccc([O-])c21.[Ti+4]	> 100	> 100	> 100	> 100 µM	> 100 µM	> 100 µM	> 100 µM	> 100	> 100											
CC1=C(C)CC2(CCCCC2=O)S(=O)C1 (stereo unspecified)	> 100	> 100	> 100	> 100 µM		> 100 µM	> 100 µM	> 100	> 100											
O=C1NC(=O)c2ccc([N+](=O)[O-])c3cccc1c23	84.1	43.9	29.1	31.8 µM	6.11 µM	27 µM			33.1							29.9				

Source: PubChem BioAssay (NCI)
